ChEMBL document CHEMBL5291721, “A preclinical secondary pharmacology resource illuminates target-adverse drug reaction associations of marketed drugs” (Nat Commun, 2023)

Assays:
[1] = molecular target: T1, 5-hydroxytryptamine receptor 1A (Homo sapiens, UniProt P08908); format: functional, cell-based
T1 sequence (P08908 whole entry): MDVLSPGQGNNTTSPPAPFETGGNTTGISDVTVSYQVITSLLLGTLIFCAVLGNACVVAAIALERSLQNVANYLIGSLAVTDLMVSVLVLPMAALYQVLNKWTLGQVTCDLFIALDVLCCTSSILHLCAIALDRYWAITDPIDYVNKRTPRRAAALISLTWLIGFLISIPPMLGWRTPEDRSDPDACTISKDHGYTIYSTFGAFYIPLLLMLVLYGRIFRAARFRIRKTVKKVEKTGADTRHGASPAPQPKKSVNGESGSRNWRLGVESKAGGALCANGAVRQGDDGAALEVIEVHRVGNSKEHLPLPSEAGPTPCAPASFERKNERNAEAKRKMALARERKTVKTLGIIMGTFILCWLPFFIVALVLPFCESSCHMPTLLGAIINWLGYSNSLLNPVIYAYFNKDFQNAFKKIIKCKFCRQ

[2] = molecular target: T2, Muscarinic acetylcholine receptor M1 (Homo sapiens, UniProt P11229); format: functional
T2 sequence (P11229 whole entry): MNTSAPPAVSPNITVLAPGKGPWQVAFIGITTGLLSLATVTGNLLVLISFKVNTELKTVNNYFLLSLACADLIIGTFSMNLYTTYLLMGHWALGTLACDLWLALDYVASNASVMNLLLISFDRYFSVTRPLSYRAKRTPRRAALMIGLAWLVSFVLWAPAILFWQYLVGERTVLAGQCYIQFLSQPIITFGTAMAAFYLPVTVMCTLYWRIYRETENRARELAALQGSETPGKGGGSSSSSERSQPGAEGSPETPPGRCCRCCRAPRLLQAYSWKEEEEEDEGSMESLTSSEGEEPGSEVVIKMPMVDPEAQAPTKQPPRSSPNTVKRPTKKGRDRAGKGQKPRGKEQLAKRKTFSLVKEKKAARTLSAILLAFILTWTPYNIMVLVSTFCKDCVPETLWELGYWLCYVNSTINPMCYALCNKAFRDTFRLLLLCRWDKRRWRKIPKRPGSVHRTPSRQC

[3] = molecular target: T3, Gastrin/cholecystokinin type B receptor (Homo sapiens, UniProt P32239)
T3 sequence (P32239 whole entry): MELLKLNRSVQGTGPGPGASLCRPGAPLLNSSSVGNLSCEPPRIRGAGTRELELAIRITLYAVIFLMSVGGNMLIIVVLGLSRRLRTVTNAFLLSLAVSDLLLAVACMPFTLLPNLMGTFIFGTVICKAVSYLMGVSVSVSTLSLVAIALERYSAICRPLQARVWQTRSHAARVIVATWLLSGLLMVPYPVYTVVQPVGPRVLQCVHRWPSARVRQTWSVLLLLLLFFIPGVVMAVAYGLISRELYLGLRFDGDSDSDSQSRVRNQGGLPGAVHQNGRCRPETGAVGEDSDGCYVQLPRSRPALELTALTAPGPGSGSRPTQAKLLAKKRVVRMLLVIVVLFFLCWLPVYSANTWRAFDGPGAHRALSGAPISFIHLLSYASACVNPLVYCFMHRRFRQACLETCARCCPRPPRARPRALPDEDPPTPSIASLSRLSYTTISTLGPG

Estrogen receptor = molecular target: T4, Estrogen receptor (Homo sapiens, UniProt P03372)
T4 sequence (P03372 whole entry): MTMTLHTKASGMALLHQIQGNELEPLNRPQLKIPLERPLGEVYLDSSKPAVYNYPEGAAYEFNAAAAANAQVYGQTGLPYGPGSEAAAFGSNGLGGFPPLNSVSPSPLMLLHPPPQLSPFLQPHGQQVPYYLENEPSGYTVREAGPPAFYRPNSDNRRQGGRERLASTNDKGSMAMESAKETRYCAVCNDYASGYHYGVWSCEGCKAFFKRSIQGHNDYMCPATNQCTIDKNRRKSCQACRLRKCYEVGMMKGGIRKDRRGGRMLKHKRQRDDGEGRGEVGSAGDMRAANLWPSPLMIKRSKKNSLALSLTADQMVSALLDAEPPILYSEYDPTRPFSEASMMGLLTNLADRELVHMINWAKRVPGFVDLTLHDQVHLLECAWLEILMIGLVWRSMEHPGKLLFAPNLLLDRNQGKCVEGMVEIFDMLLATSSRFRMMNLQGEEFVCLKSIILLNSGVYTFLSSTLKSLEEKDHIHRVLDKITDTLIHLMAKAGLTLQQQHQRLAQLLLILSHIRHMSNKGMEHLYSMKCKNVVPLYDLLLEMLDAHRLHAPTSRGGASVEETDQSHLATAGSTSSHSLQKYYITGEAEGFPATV

[4] = molecular target: T5, Alpha-1A adrenergic receptor (Homo sapiens, UniProt P35348); format: functional, cell-based
T5 sequence (P35348 whole entry): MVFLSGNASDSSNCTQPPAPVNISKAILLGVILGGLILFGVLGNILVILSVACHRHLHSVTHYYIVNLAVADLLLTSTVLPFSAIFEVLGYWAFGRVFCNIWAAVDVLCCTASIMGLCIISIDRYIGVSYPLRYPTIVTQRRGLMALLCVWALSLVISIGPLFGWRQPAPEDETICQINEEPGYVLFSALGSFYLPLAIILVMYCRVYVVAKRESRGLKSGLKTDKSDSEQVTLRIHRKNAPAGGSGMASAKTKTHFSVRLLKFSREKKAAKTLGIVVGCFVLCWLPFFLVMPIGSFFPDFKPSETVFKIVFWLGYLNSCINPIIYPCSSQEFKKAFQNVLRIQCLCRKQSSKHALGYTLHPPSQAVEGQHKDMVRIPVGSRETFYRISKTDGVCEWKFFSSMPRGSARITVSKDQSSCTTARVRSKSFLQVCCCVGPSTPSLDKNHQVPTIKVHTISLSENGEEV

Histamine H2 receptor = Histamine H2 receptor (Homo sapiens, UniProt P25021); format: functional, cell-based
Sequence of Histamine H2 receptor (P25021 whole entry): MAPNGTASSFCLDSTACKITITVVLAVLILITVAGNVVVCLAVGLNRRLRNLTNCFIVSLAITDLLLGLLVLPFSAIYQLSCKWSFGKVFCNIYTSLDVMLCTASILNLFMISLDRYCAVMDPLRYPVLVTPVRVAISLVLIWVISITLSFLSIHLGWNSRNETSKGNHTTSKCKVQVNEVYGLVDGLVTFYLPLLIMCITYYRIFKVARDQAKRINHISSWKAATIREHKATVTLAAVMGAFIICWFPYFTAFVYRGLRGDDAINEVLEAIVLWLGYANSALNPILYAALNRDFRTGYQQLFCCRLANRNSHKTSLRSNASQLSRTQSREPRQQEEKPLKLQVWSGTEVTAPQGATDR

[5] = molecular target: 3',5'-cyclic-AMP phosphodiesterase 4A (Homo sapiens, UniProt P27815); format: functional
Sequence of 3',5'-cyclic-AMP phosphodiesterase 4A (P27815 whole entry): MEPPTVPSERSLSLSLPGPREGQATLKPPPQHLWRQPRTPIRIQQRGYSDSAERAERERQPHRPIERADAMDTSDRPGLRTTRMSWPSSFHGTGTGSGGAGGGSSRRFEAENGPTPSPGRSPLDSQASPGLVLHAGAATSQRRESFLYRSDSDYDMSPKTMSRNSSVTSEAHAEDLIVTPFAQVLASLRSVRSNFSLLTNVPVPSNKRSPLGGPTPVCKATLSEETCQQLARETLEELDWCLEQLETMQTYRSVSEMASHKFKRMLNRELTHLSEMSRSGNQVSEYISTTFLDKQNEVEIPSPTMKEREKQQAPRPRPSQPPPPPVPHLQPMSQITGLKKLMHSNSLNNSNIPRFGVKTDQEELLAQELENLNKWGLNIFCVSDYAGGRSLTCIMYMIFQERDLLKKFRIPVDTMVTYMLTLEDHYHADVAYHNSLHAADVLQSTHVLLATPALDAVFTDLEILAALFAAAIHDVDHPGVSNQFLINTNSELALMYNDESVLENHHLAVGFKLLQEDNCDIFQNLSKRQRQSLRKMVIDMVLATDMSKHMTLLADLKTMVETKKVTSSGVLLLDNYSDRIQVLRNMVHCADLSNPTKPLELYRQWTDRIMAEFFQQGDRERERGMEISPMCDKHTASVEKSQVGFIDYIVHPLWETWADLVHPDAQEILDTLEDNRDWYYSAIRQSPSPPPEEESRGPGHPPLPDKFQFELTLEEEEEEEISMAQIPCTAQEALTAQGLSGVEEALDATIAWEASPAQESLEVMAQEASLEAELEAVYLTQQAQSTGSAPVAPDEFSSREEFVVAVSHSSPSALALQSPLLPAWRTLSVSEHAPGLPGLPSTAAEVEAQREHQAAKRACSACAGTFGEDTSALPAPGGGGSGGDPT

Thromboxane A2 receptor = molecular target: T6, Thromboxane A2 receptor (Homo sapiens, UniProt P21731); format: functional, cell-based
T6 sequence (P21731 whole entry): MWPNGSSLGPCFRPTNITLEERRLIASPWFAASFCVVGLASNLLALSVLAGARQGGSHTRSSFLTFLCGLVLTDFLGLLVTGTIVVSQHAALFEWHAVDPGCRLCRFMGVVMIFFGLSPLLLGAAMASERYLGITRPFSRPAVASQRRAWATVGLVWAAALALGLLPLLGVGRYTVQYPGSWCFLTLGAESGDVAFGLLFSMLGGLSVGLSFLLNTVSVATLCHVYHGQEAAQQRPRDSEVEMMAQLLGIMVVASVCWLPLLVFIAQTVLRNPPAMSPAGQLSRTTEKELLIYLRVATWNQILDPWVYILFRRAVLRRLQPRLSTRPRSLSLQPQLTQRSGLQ

[6] = molecular target: Sodium-dependent noradrenaline transporter (Homo sapiens, UniProt P23975)
Sequence of Sodium-dependent noradrenaline transporter (P23975 whole entry): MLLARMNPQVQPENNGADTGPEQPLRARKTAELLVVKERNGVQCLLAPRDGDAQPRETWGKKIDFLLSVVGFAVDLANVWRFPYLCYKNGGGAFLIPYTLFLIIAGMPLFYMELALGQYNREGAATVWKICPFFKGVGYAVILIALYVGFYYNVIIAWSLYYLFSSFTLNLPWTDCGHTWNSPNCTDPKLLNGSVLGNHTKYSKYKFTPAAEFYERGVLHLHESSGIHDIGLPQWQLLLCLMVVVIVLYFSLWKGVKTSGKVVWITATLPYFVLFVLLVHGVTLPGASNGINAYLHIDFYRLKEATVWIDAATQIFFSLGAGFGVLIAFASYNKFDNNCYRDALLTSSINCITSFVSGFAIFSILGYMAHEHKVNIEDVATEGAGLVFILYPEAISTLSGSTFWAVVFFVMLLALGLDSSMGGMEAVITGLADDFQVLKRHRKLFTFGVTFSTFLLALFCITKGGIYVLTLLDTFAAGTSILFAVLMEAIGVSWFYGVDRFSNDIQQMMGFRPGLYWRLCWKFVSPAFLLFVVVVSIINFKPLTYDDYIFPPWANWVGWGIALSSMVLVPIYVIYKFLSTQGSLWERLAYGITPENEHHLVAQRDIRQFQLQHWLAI
Note: assay procedure not described here.

| Structure (SMILES) | AC50 [1] [µM] | AC50 [2] [µM] | AC50 [3] [µM] | AC50 (Estrogen receptor) [µM] | AC50 [4] [µM] | AC50 (Histamine H2 receptor) [µM] | AC50 [5] [µM] | AC50 (Thromboxane A2 receptor) [µM] | AC50 [6] [µM] |
| --- | --- | --- | --- | --- | --- | --- | --- | --- | --- |
| CO/N=C(\C(=O)N[C@@H]1C(=O)N2C(C(=O)[O-])=C(C[N+]3(C)CCCC3)CS[C@H]12)c1csc(N)n1 | > 300 | > 300 | > 30 | > 30 | > 300 | > 30 | – | – | – |
| CC(N)Cc1ccccc1 (stereo not drawn) [AMPHETAMINE] | > 30 | > 30 | > 30 | > 30 | > 30 | > 10 | – | – | – |
| O=C1c2c(O)c(=O)ccn2N([C@@H]2c3ccccc3SCc3c2ccc(F)c3F)[C@@H]2COCCN12 [BALOXAVIR] | – | – | – | – | – | – | > 30 | > 30 | > 30 |
| C(=N\NC1=NCCN1)/c1c2ccccc2c(/C=N/NC2=NCCN2)c2ccccc12 [BISANTRENE] | – | – | – | – | – | – | > 30 | > 30 | 7.13 |
| CCO/N=C(\C(=O)N[C@@H]1C(=O)N2C(C(=O)[O-])=C(Sc3nc(-c4cc[n+](C)cc4)cs3)CS[C@H]12)c1nsc(N)n1 [CEFTAROLINE] | – | – | – | – | – | – | > 30 | > 30 | > 30 |
| Cc1cc(O)cc(C)c1Cl [CHLOROXYLENOL] | – | – | – | – | – | – | > 30 | 28.3 | > 30 |
| C[N+](C)(C)CCCCCCCCCC[N+](C)(C)C [DECAMETHONIUM] | – | – | – | – | – | – | > 30 | > 30 | > 30 |
| O=C1c2ccccc2C(=O)C1C(=O)C(c1ccccc1)c1ccccc1 [DIPHENADIONE] | – | – | – | – | – | – | > 30 | 1.84 | > 30 |
| COC(=O)[C@@H]1CC2=CC(=O)CC[C@]2(C)[C@@]23O[C@@H]2C[C@@]2(C)[C@@H](CC[C@@]24CCC(=O)O4)[C@H]13 [EPLERENONE] | > 30 | > 30 | > 30 | > 30 | > 30 | > 10 | – | – | – |
| CCC(=O)O[C@H]1[C@H](O[C@@H]2[C@@H](C)[C@H](O[C@H]3C[C@@](C)(OC)[C@@H](O)[C@H](C)O3)[C@@H](C)C(=O)O[C@H](CC)[C@@](C)(O)[C@H](O)[C@@H](C)C(=O)[C@H](C)C[C@@]2(C)O)O[C@H](C)C[C@@H]1N(C)C [ERYTHROMYCIN PROPIONATE] | – | – | – | – | – | – | > 30 | > 3 | 29.9 |
| C#C[C@]1(O)CC[C@H]2[C@@H]3CCc4cc(O)ccc4[C@H]3CC[C@@]21C [ETHINYL ESTRADIOL] | – | – | > 30 | – | – | > 10 | 20.1 | > 10 | – |
| CCOC(=O)c1ccc(O)cc1 [ETHYLPARABEN] | – | – | – | – | – | – | > 30 | > 30 | > 30 |
| O=C1[C@H](CC[C@H](O)c2ccc(F)cc2)[C@@H](c2ccc(O)cc2)N1c1ccc(F)cc1 [EZETIMIBE] | – | – | – | – | – | – | > 30 | 7.68 | 24 |
| O=C(COc1ccc(Cl)cc1)N1CCN(Cc2ccc3c(c2)OCO3)CC1 [FIPEXIDE] | – | – | – | – | – | – | > 30 | 11.3 | 20.4 |
| Cc1c(-c2ccccc2)oc2c(C(=O)OCCN3CCCCC3)cccc2c1=O [FLAVOXATE] | – | – | – | – | – | – | 6.12 | > 30 | 11.3 |
| CCC(=O)c1c(O)cc(O)cc1O [FLOPROPIONE] | – | – | – | – | – | – | > 30 | > 30 | > 30 |
| CC1(C)O[C@@H]2C[C@H]3[C@@H]4C[C@H](F)C5=CC(=O)CC[C@]5(C)[C@H]4[C@@H](O)C[C@]3(C)[C@]2(C(=O)CO)O1 [FLURANDRENOLIDE] | – | – | – | – | – | – | > 30 | > 30 | > 30 |
| C#C[C@]1(O)CC[C@H]2[C@@H]3CCC4=CC(=O)CC[C@@H]4[C@H]3CC[C@@]21CC [LEVONORGESTREL] | – | – | – | – | – | – | > 30 | > 30 | > 30 |
| OC[C@@H](O)[C@@H](O)[C@H](O)[C@H](O)CO [MANNITOL] | – | – | – | – | – | – | > 30 | > 30 | > 30 |
| CN1CCCC(CN2c3ccccc3Sc3ccccc32)C1 (stereo not drawn) [MEPAZINE] | – | – | – | – | – | – | > 30 | > 10 | 2.38 |
| Sc1ncnc2nc[nH]c12 [MERCAPTOPURINE ANHYDROUS] | – | – | – | – | – | – | > 30 | > 30 | > 30 |
| C[N+]1(C)[C@@H]2C[C@@H](OC(=O)[C@H](CO)c3ccccc3)C[C@H]1[C@@H]1O[C@@H]12 [METHSCOPOLAMINE] | – | – | – | – | – | – | > 30 | > 30 | > 30 |
| CC(=O)Oc1c(C)cc(OCC(O)CNC(C)C)c(C)c1C (stereo not drawn) [METIPRANOLOL] | – | – | – | – | – | – | > 30 | > 30 | > 30 |
| NC(=O)c1ncn([C@@H]2O[C@H](CO)[C@@H](O)[C@H]2O)c1O [MIZORIBINE] | > 30 | > 30 | > 30 | > 30 | > 30 | > 30 | – | – | – |
| O=C1CC[C@@]2(O)[C@H]3Cc4ccc(O)c5c4[C@@]2(CCN3CC2CC2)[C@H]1O5 [NALTREXONE] | – | – | – | – | – | – | > 30 | > 30 | > 30 |
| CC(N/C(=N\C#N)Nc1ccncc1)C(C)(C)C (stereo not drawn) [PINACIDIL ANHYDROUS] | – | – | – | – | – | – | > 30 | > 30 | > 30 |
| CC(O)CO (stereo not drawn) [PROPYLENE GLYCOL] | – | – | – | – | – | – | > 30 | > 30 | > 30 |
| CN(C)C(=O)Oc1ccc[n+](C)c1 [PYRIDOSTIGMINE] | – | – | – | – | – | – | > 30 | > 30 | > 30 |
| O=C(CCCCCCC(=O)Nc1ccccc1)NO [VORINOSTAT] | > 30 | > 30 | > 30 | > 30 | > 30 | > 30 | – | – | – |
